The values below come from ChEMBL document CHEMBL1135963, “Synthesis and vasorelaxant activity of new coumarin and furocoumarin derivatives” (Bioorg Med Chem Lett, 2002).

The species named for experiment [1] is Rattus norvegicus. The experiment can be described thus: Compound was tested for the vasorelaxation in rat aorta rings pre-contracted with KCl 60 mM. The class given is functional, organism-based.
For experiment [2], the species on record is Rattus norvegicus. Put plainly: Compound was tested for the vasorelaxation in rat aorta rings pre-contracted with noradrenaline (NA) 10 uM. The class given is functional, organism-based.
The species entered for experiment [3] is Rattus norvegicus. The experiment can be described thus: Antagonist PD'2 which is the negative logarithm of the molar concentration of antagonist required to cause 50% depression of the maximal response of the agonist was determined. The class given is functional.
The species entered for experiment [4] is Rattus norvegicus. The experiment can be described thus: Effect on concentration dependent contractions in rat aortic rings expressed as pD2 value. The class given is functional, Aorta.

`COc1c2occ(C)c2cc2c(CO)cc(=O)oc12`: the IC50 was found to be 42.6 µM in experiment [1] and 42 µM in experiment [2].
On the same counts, the results for `CCOC(=O)COc1ccc2c(C)c(CCN(CC)CC)c(=O)oc2c1` [CHROMONAR] are over 1000 µM and over 1000 µM.
On to `COc1c(O)ccc2c(CO)cc(=O)oc12`, for which the IC50 in experiment [1] amounted to 1010 µM; in experiment [2], 933 µM. In addition, in experiment [3], the “PD'2” value turned out to be 2.57.
Turning to `CC(=O)COc1c2occ(C)c2cc2c(CO)cc(=O)oc12`, the IC50 is 93.3 µM in experiment [1] and 52.6 µM in experiment [2].
On to `Cc1coc2cc3oc(=O)cc(CO)c3cc12`, for which the IC50 in experiment [1] is 54 µM; in experiment [2], 68.4 µM. Besides, the “PD'2” value in experiment [3] was determined as 4.73.
For `CC(=O)COc1ccc2c(CO)cc(=O)oc2c1OCC(C)=O`, the half-maximal inhibitory concentration (IC50) in experiment [1] and in experiment [2] was over 1000 µM throughout.
For the molecule `NC[C@H](O)c1ccc(O)c(O)c1` [NOREPINEPHRINE], the pD2 in experiment [4] turned out to be 6.07.
For the molecule `COc1c2occc2c(OC)c2c(=O)cc(C)oc12` [KHELLIN], the IC50 in experiment [1] worked out at 316 µM; in experiment [2], 309 µM. Moreover, the “PD'2” value in experiment [3] was found to be 4.46.

Usually IC50 stands for the midpoint of a concentration-inhibition curve.
